Data on one compound can be found in patent publication US20250127903A1, “SUBSTITUTED PIPERIDINE DEGRONIMERS FOR TARGET PROTEIN DEGRADATION” (priority 2016, published 2025).

The experiment deals with CRBN-DDB1 (Homo sapiens (Human), UniProt Q96SW2). Nature of the experiment: CRBN-DDB1 fluorescence polarization (FP) binding assay. The conditions noted are these: Table 2 Degrons; displacement of Thalidomide-Alexa Fluor or Pomalidomide-fluorescein probe. How it is done: Measuring compound ligand binding to CRBN-DDB1 was carried out using an established sensitive and quantitative in vitro fluorescence polarization (FP) based binding assay. […] Compounds were dispensed from serially diluted DMSO stock into black 384-well compatible fluorescence polarization plates using an Echo acoustic dispenser. […] Matching control wells excluding CRBN-DDB1 were used to correct for background fluorescence. Plates were read on an Envision plate reader with appropriate FP filter sets.
(Fluorescence polarisation rises when a labelled molecule tumbles more slowly, as on binding a larger partner.)

Sequence of CRBN-DDB1 (Q96SW2 whole entry, looked up): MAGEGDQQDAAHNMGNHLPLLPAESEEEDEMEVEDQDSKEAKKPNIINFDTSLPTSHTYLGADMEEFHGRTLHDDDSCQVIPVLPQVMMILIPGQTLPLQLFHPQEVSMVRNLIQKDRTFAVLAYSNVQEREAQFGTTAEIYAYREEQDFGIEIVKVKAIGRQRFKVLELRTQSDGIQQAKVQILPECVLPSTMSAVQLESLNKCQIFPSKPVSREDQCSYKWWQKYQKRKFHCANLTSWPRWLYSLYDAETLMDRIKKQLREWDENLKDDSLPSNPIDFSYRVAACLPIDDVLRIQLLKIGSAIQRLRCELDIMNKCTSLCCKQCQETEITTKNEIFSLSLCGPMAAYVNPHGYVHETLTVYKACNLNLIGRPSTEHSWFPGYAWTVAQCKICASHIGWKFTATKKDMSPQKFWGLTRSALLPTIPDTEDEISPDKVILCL
Sequence of CRBN-DDB1 (Q16531 whole entry partner, looked up): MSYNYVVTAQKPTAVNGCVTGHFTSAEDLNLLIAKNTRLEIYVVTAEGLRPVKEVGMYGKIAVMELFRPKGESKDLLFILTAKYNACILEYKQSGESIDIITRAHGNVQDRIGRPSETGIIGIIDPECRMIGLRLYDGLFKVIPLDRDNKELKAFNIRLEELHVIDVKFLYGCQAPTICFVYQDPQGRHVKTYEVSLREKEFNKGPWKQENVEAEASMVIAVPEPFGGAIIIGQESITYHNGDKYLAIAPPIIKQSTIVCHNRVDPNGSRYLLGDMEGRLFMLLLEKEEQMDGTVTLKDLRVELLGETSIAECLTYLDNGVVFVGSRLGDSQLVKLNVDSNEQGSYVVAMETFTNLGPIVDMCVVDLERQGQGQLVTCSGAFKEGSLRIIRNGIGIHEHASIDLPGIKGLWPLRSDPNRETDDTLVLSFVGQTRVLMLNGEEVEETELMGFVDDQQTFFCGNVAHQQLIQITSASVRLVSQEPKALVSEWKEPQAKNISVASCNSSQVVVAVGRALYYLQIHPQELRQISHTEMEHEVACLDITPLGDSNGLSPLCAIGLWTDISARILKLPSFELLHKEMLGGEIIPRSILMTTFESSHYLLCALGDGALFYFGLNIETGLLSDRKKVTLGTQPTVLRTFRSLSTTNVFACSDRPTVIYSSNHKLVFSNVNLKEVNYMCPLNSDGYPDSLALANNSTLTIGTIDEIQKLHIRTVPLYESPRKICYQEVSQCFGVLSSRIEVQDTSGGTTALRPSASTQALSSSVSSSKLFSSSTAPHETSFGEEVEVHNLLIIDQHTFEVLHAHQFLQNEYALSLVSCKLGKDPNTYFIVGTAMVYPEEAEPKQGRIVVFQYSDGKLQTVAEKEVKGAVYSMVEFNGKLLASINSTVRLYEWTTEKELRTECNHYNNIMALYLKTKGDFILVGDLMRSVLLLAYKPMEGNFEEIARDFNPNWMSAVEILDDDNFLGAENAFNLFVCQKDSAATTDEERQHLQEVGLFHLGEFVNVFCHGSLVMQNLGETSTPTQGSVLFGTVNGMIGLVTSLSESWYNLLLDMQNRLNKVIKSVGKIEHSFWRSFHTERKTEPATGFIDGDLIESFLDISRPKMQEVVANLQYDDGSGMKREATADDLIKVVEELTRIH

Regarding `CC(C)(C)OC(=O)N1CCC(n2cc(CNc3cccc4c3C(=O)N(C3CCC(=O)NC3=O)C4=O)nn2)CC1` (stereo not shown) [Compound 264, tert-Butyl 4-(4-(((2-(2,6-Dioxopiperidin-3-yl)-1,3-dioxoisoindolin-4-yl)amino)methyl)-1H-1,2,3-triazol-1-yl)piperidine-1-carboxylate], the Kd is under 10 µM.

Broadly, the Kd is the free concentration of one partner at which half of the binding sites on the other are occupied at equilibrium, for simple one-to-one binding. A higher Kd goes with a looser complex.
